Assays:
renal adenocarcinoma [1] = assay: Per oesophageal Rose Bengal plus 532 nm light, murine renal adenocarcinoma tumor model; assay type: in vivo, Balb C Nude (nu/nu) mice
[2] = system: antibiotic resistant Staphylococcus aureus; assay: Photodynamic eradication of microbes; assay type: cell-based; settings: aqueous solution approximately 1 to 10 micromolar; green light 500-600 nm
[3] = Photochemical quantum yields (triplet, singlet oxygen); assay type: physicochemical
[4] = Retention of agent after intratumoral or peritumoral injection; settings: mouse, in vivo
Description: Initially, tumor cell suspensions (e.g. melanoma, breast tumor, liver tumor, renal carcinoma, gall bladder tumor or prostate tumor) were injected subcutaneously into the flanks of nude mice resulting in formation of primary tumors, within a few weeks, at the injection site having a volume of approximately 0.1 cm^3 to 0.5 cm^3.

[5] = system: tumor cell suspensions (e.g. melanoma, breast tumor, liver tumor, renal carcinoma, gall bladder tumor or prostate tumor); assay: Photodynamic treatment of subcutaneous primary tumors in nude mice; assay type: in vivo
Renal Adenocarcinoma [6] = assay: Intratumoral injection plus light, murine tumor model; assay type: in vivo; settings: for No. Tumors Cured: 4 treated
esophageal tissue = assay: Per oesophageal Rose Bengal plus green light on esophageal tissue; assay type: in vivo, canines; settings: approximately 1.0% W/V solution p.o.; green light 500-600 nm
[7] = system: procaryotic or eucaryotic cell cultures; assay: Dark and light cytotoxicity in cell cultures; assay type: cell-based; settings: concentrations equivalent to or greater than 100 mg/kg
Text: Further, the inventors of the present invention have shown that these agents are readily cleared from healthy tissues in a matter of several hours and are known to be rapidly excreted in bile, urine and feces, without doing damage to those healthy tissues while it was there.

[8] = Serum level after per oesophageal administration; assay type: in vivo; settings: approximately 10% W/V solution p.o.
[9] = Absorbance properties of halogenated xanthenes (λmax, α); assay type: physicochemical
Text: Certain general properties of this class of agents are discussed in further detail in U.S. Ser. No. 09/130,041, filed on Aug. 6, 1998, U.S. Ser. No. 09/184,388, filed on Nov. 2, 1998, and U.S. Ser. No. 09/216,787, filed on Dec. 21, 1998, which are herein incorporated by reference in their entirety.

prostate tumor = assay: Intratumoral Rose Bengal plus green light; assay type: in vivo; settings: approximately 10% W/V solution i.t.; green light 500-600 nm
[10] = system: Human Breast Adenocarcinoma (MCF-7); assay: Intratumoral injection plus light, murine tumor model; assay type: in vivo; settings: i.t. approx. 30 μL 10% solution, tumor 3 × 4 × 4 mm, 100 J/cm^2 532 nm
metastatic breast tumor = assay: Intratumoral Rose Bengal plus green light; assay type: in vivo; settings: approximately 10% W/V solution i.t.; green light 500-600 nm
BNL/SV40 Liver Cell = assay: Intratumoral injection plus light, murine tumor model; assay type: in vivo; settings: i.t. approx. 30 μL 10% solution, tumor 8 × 10 × 5 mm, 50 J/cm^2 532 nm
lung tumor = assay: Intratumoral Rose Bengal plus green light; assay type: in vivo; settings: approximately 10% W/V solution i.t.; green light 500-600 nm
cutaneous tumors = assay: Per oesophageal Rose Bengal plus green light, mice with cutaneous tumors; assay type: in vivo; settings: approximately 10% W/V solution p.o.; green light 500-600 nm
Escherichia coli = assay: Photodynamic eradication of microbes; assay type: cell-based; settings: aqueous solution approximately 1 to 10 micromolar; green light 500-600 nm
various yeasts = assay: Photodynamic eradication of microbes; assay type: cell-based; settings: aqueous solution approximately 1 to 10 micromolar; green light 500-600 nm
thyroid tumor = assay: Intratumoral Rose Bengal plus green light; assay type: in vivo; settings: approximately 10% W/V solution i.t.; green light 500-600 nm
cutaneous lipocytes = assay: Systemic administration to obese mice: accumulation in and photodynamic destruction of cutaneous lipocytes; assay type: in vivo, obese laboratory mice
Text: For example, Rose Bengal's relatively large partition coefficient is indicative of a preference for accumulation in lipophilic tissue, such as cutaneous lipocytes.

[11] = No Light control, 0 J/cm^2, i.t. 10% solution, tumor 2 × 3 × 3 mm
[12] = i.t. approx. 30 μL 10% solution, tumor 2 × 3 × 3 mm, 100 J/cm^2 532 nm
[13] = i.t. approx. 30 μL 10% solution, tumor 5 × 8 × 8 mm, 100 J/cm^2 532 nm

Structure (SMILES): O=C1OC2(c3cc(I)c(O)c(I)c3Oc3c2cc(I)c(O)c3I)c2c(Cl)c(Cl)c(Cl)c(Cl)c21 [Rose Bengal, 4,5,6,7-tetrachloro-2′,4′,5′,7′-Tetraiodofluorescein]
- Cure Rate (renal adenocarcinoma [1]; 10% solution p.o. approx. 50 mg/kg, 100 J/cm^2 532 nm, latency 3 hr): 60% (3/5)
- No. Tumors With Positive Response (renal adenocarcinoma [1]; 10% solution p.o. approx. 50 mg/kg, 100 J/cm^2 532 nm, latency 3 hr, 5 tumors treated, eschar at tumor site 24 h after illumination): 3
- Cure Rate (renal adenocarcinoma [1]; 10% solution p.o. approx. 50 mg/kg, 100 J/cm^2 532 nm, latency 20 hr): 78% (7/9)
- No. Tumors With Positive Response (renal adenocarcinoma [1]; 10% solution p.o. approx. 50 mg/kg, 100 J/cm^2 532 nm, latency 20 hr, 9 tumors treated): 7
- Cure Rate (renal adenocarcinoma [1]; No Light control, 0 J/cm^2, p.o. approx. 50 mg/kg): 0% (0/2)
- No. Tumors With Positive Response (renal adenocarcinoma [1]; No Light control, 0 J/cm^2, p.o. approx. 50 mg/kg, 2 tumors treated): 0
- Damage in peritumoral tissues (renal adenocarcinoma [1]; p.o. approx. 50 mg/kg, tumor and peritumoral area illuminated, 100 J/cm^2 532 nm): eschar formation selectively at the tumor site. No damage was noted in peritumoral tissues. “No Light” and
- Eradication of microbes [2]: substantial or complete eradication
- φ (singlet oxygen) EtOH ([3]; EtOH): 0.75
- φ (singlet oxygen) H2O ([3]; H2O): 0.86
- φ (singlet oxygen) MeOH ([3]; MeOH): 0.76
- φ (triplet) MeOH ([3]; MeOH): 0.76
- Injected dose remaining in the tumor [4]: more than 75%
- Tissue localization after i.t. administration [4]: persistent accumulation and retention of Rose Bengal uniformly throughout the tumor volume
- Tumor response after p.o. administration and illumination ([5]; 10-30 μL of 10% solution (1-3 mg) p.o., 532 nm, 50-200 J/cm^2, 3-48 hours post administration): selective destruction of tumor tissue with no substantive effect in healthy surrounding tissue
- Tumor response after intratumoral injection and illumination ([5]; i.t., similar formulation, light at 532 nm): selective tumor destruction
- Cure Rate (Renal Adenocarcinoma [6]; [11]): 0%
- No. Tumors Cured (Renal Adenocarcinoma [6]; [11]): 0
- Cure Rate (Renal Adenocarcinoma [6]; [12]): 100%
- No. Tumors Cured (Renal Adenocarcinoma [6]; [12]): 4
- Cure Rate (Renal Adenocarcinoma [6]; [13]): 50%
- No. Tumors Cured (Renal Adenocarcinoma [6]; [13]): 2
- Tissue response in illuminated region (esophageal tissue): controlled, localized photodynamic destruction of tissues in the treated region
- Light cytotoxicity: effect on cell cultures ([7]; light between about 500 nm and 600 nm): immediate and complete kill
- Dark cytotoxicity: effect on viability of cultures ([7]; no illumination): no measurable effect on the viability
- Serum levels of Rose Bengal [8]: transient elevation of serum levels
- α [9]: 100000 L/cm/mol
- λmax (nm) EtOH ([9]; EtOH): 557 nm
- λmax (nm) H2O ([9]; H2O): 547 nm
- λmax (nm) MeOH ([9]; MeOH): 556 nm
- Tumor response (prostate tumor): controlled, localized photodynamic eradication
- Cure Rate [10]: 100%
- No. Tumors Cured ([10]; 2 treated): 2
- Tumor response (metastatic breast tumor): controlled, localized photodynamic eradication
- Cure Rate (BNL/SV40 Liver Cell): 25%
- No. Tumors Cured (BNL/SV40 Liver Cell; 8 treated, reoccurrence at 2-3 weeks): 2
- Tumor response (lung tumor): controlled, localized photodynamic eradication
- Tumor response (cutaneous tumors): substantial or complete photodynamic eradication
- Eradication of microbes (Escherichia coli): substantial or complete eradication
- Eradication of microbes (various yeasts): substantial or complete eradication
- Tumor response (thyroid tumor): controlled, localized photodynamic eradication
- Tissue accumulation after systemic administration (cutaneous lipocytes; aqueous solution i.p. or p.o., cutaneous fat deposits of obese mice): highly selective accumulation
- Photodynamic effect on lipocytes (cutaneous lipocytes; illumination of skin at approximately 532 nm after systemic administration): selective photodynamic destruction of such lipocytes with no effect in overlying skin or underlying muscle tissue

— US20050282889A1, “Intracorporeal medicaments for photodynamic treatment of disease” (priority 1996, published 2005)
